Data: US20050260264A1, “Dosage form for delivery of multiple drug forms” (priority 2004, published 2005)
Structures can show the parent of a compound that is named as a salt. Where two headings read alike, the source gives them in different places.

Tests used:
[1] = osmotic pressure of the drug; assay type: physicochemical
[2] = solubility of the pharmaceutical agent in water; assay type: physicochemical
Method: As defined herein, the solubility of a pharmaceutical agent is determined by adding the pharmaceutical agent to stirred or agitated de-ionized water maintained in a constant temperature bath at a temperature of 37° C. until no more pharmaceutical agent dissolves. The resulting solution saturated with the pharmaceutical agent is then filtered, typically under pressure through a 0.8-micron Millipore filter, and the concentration of the pharmaceutical agent in the solution is measured by any appropriate analytical method including gravimetric, ultraviolet spectrophometry, chromatography, and the like. The solubility of the pharmaceutical agent is measured at saturated concentration.

In the case of CNC(=C[N+](=O)[O-])NCCSCc1ccc(CN(C)C)o1.Cl [Ranitidine HCl, ranitidine hydrochloride], the “osmotic pressure of the drug” value [1] is reported as 95 atmospheres.
For CN1CCN(CCCN2c3ccccc3Sc3ccc(Cl)cc32)CC1 [prochlorperazine base], the “solubility in water (aqueous solubility)” value [2] was 0.1 to 1 mg per milliliter.
In the case of CN1CCN(CCCN2c3ccccc3Sc3ccc(Cl)cc32)CC1 [prochlorperazine edisilate], the “solubility in water (aqueous solubility)” value [2] is reported as “about 500 mg per milliliter”.
For CCC(=O)O[C@](Cc1ccccc1)(c1ccccc1)[C@H](C)CN(C)C [propoxyphene base], the “solubility in water (in words)” value [2] was “only slightly soluble”.
For CCC(=O)O[C@](Cc1ccccc1)(c1ccccc1)[C@H](C)CN(C)C [propoxyphene hydrochloride], the “solubility in water (in words)” value ([2]; hydrochloride) was “freely soluble”.
